In one experiment the test system is norepinephrine uptake. Briefly: Inhibition of norepinephrine uptake in rat brain synaptosomes (hippocampus, 3H norepinephrine). The experiment is classed as biochemical. As to conditions: for IC50: rat hippocampus synaptosomes, 3H norepinephrine about 10 nM, 37° C., read-out: Norepinephrine IC50 (inhibition of neurotransmitter uptake in synaptosomes); for inhibition of norepinephrine and serotonin uptake (in words): synaptosomes, both transmitters. How it is done: (§1) The action mechanism of a group of therapeutically much used antidepressants must be regarded as being the inhibition of the neuronal uptake of transmitter substances (norepinephrine and/or serotonin). These properties were utilized in biological test models for characterizing potential antidepressants (inhibition of neurotransmitter uptake in rat brain synaptosomes):
(§2) Hippocampus and cortex from rat brain were prepared, and were homogenized in 0.32M sucrose solution. By means of differential centrifuging, synaptosomes were obtained, and these were suspended in buffer solution. The synaptosomes are able actively to take up added neurotransmitter substances (eg. norepinephrine or serotonine) from the surrounding medium. It is possible to antagonize this process by uptake inhibitors, as a function of concentration. Various concentrations of the test substances were added to the synaptosomes, and the mixtures were then incubated with ^3 H norepinephrine (hippocampus) or ^3 H serotonin (cortex) at 37° C. The substrate concentration was about 10 nM. The uptake was terminated by diluting the mixture with ice-cooled buffer solution, after which the synaptosomes were separated off by centrifuging and the ^3 H activity in the sediment was measured. A blank value was determined by incubation at 0° C.
(§3) From the inhibitory values determined for various inhibitor concentrations compared with the control, the mean inhibitory concentration (IC50) was calculated by linear regression following logit-log transformation.

The next experiment concerns serotonin uptake. The experiment in a line: Inhibition of serotonin uptake in rat brain synaptosomes (cortex, 3H serotonin). The experiment is classed as biochemical. As to conditions: 3H serotonin about 10 nM, 37° C., read-out: Serotonin IC50 (inhibition of neurotransmitter uptake in synaptosomes). How it is done: as §1, §2, §3

Structures can show the parent of a compound that is named as a salt.

In general, IC50 refers to the concentration that inhibits the measured activity by half. `c1ccc(OCC2(c3ccccc3)CCNCCO2)cc1` (stereo not drawn) [Example 1, 7-phenyl-7-phenoxymethyl-hexahydro-1,4-oxazepine hydrochloride]: the results for the IC50 with norepinephrine uptake and with serotonin uptake were 15 nM and 190 nM, respectively.

On to `Clc1ccccc1OCC1(c2ccccc2)CCNCCO1` (stereo not drawn) [Example 2, 7-phenyl-7-(2-chlorophenoxymethyl)-hexahydro-1,4-oxazepine hydrochloride], for which the IC50 came to 2.8 nM with norepinephrine uptake and 460 nM with serotonin uptake.

Regarding `COc1ccccc1OCC1(c2ccccc2)CCNCCO1` (stereo not drawn) [Example 3, 7-phenyl-7-(2-methoxyphenoxymethyl)-hexahydro-1,4-oxazepine hydrochloride], the figures for the IC50 with norepinephrine uptake and with serotonin uptake were 5.9 nM and 190 nM, respectively.

Consider `Clc1ccc(OCC2(c3ccccc3)CCNCCO2)cc1` (stereo not drawn) [Example 4, 7-phenyl-7-(4-chlorophenoxymethyl)-hexahydro-1,4-oxazepine], for which the IC50 is 74 nM in the experiment with norepinephrine uptake and 39 nM in the experiment on serotonin uptake. Moreover, the “inhibition of norepinephrine and serotonin uptake (in words)” value (“inhibition” below) in the experiment on norepinephrine uptake was “inhibit the uptake of both transmitters at an equally low concentration”.

For the compound `COc1ccc(OCC2(c3ccccc3)CCNCCO2)cc1.Cl` (stereo not drawn) [Example 5, 7-phenyl-7-(4-methoxyphenoxymethyl)-hexahydro-1,4-oxazepine hydrochloride], in the experiment with norepinephrine uptake, the IC50 was 86 nM; the “inhibition” value is “inhibit the uptake of both transmitters at an equally low concentration”. Besides, the IC50 in the experiment on serotonin uptake is 100 nM.

Take `CN1CCOC(COc2ccccc2Cl)(c2ccccc2)CC1` (stereo not drawn) [Example 7]: in the experiment on norepinephrine uptake, the IC50 was 98 nM; the “inhibition” value is recorded as “inhibit the uptake of both transmitters at an equally low concentration”. Moreover, the IC50 with serotonin uptake turned out to be 300 nM.

As for `CN(C)CCCN1c2ccccc2CCc2ccccc21` [Imipramine, reference compound], in the experiment with norepinephrine uptake, the IC50 is 14 nM; the “inhibition” value was “inhibits both norepinephrine uptake and serotonin uptake at low concentration”. Also, the IC50 in the experiment with serotonin uptake stood at 130 nM.

Source of the values: patent publication US4499087A, “7-Phenyl-7-phenoxymethyl-hexahydro-1,4-oxazepines and their use” (BASF Aktiengesellschaft, priority 1982, dated 1985).
